{
  "source": "patent US8053627B2",
  "about": "“Methods for treating demyelination disorders” (University of Chicago, priority 2005, dated 2011)",
  "key": {"BIP, CHOP, p-eIF-2α": {"system": "BIP, CHOP, p-eIF-2α", "experiment": "ER stress markers in corpus callosum during remyelination (real time PCR, Western blot)", "format": "in vivo", "conditions": "DOX− mice", "procedure": "Repression of remyelination by IFN-γ is associated with ER stress. […] To determine whether IFN-γ interferes with endoplasmic reticulum (ER) function in remyelinating oligodendrocytes, the expression of ER stress markers was monitored in the corpus callosum of mice expressing IFN-γ. The study was performed using the transgenic mice described in Example 1.\nThe level of mRNA encoding ER stress associated genes binding immunoglobulin protein/78 KDa glucose regulated protein (BIP/GRP78) and the CAATT enhancer-binding protein homologous protein/growth and DNA damage protein 153 (CHOP/GADD153), was determined using real time PCR, as described in Example 1 in the corpus callosum of the cuprizone treated mice of Example 1. The probes, sense and antisense primers that were used were: […]\nThe level of phosphorylated eIF-2α, which inhibits nucleotide exchange on the eIF-2 complex and attenuates most protein synthesis, was analyzed by Western blot, and the expression was colocalized by immunostaining CC1 antibodies as described above. Western blot analysis was performed as follows. The corpus callosum from 3 mice was rinsed in ice cold phosphate-buffered saline (PBS) and pooled, and immediately homogenized in 5 volumes of Triton X-100 buffer (20 mM HEPES pH 7.5, 150 mM NaCl, 1% Triton X-100, 10% glycerol, 1 mM EDTA, 10 mM tetrasodium pyrophosphate, 100 mM NaF, 17.5 mM β-glycerophosphate, 10 mM phenylmethylsulfonyl fluoride, 15 μg/ml aprotonin, and 6 μg/ml pepstatin A) using a motorized homogenizer. After incubation on ice for 15 min, the extracts were cleared by centrifugation at 14,000 rpm twice for 30 min each. The protein content of each extract was […] by protein assay (Bio-Rad). The extracts (40 μg) were separated by sodium dodecyl sulfate-polyacrylamide gel electrophoresis and transferred to nitrocellulose. […] The following primary antibodies were used: anti-eIF-2α (1:500; Santa Cruz, Santa Cruz, Calif.), anti-p-eIF-2α (1:1000, Cell signaling Technology), anti-CHOP (1:500; Santa Cruz) and anti-actin (1:1000; Sigma, St Louis, Mo.)."}, "corpus callosum": {"system": "corpus callosum", "experiment": "Cuprizone remyelination in double transgenic mice on PERK+/+ or PERK+/− background", "format": "in vivo", "conditions": "for remyelinated axons: 9 weeks", "description": "The involvement of the ER stress response in the reduction caused by IFN-γ to remyelinate lesions was examined in transgenic mice that were generated to be heterozygous for a loss of function mutation in pancreatic ER kinase (PERK) (Harding, et al., (2001) Mol Cell 7:1153-1163), and to be temporally regulated for expressing INF-γ in the CNS. TRE/IFN-γ mice were first crossed with PERK+/− mice (Harding, et al. (2001) Mol. Cell 7: 1153-1163) on the C57BL/6 background to generate mice the carry the PERK mutation, and the resulting progeny were crossed to GFAP/tTA mice to obtain transgenic mice that were heterozygous for the PERK mutation. The effect of PERK on remyelination in the presence or absence of INF-γ was evaluated as evaluated as a function of the level of meylination of oligodendrocytes in remyelinating lesions and the number of oligodendrocytes present in the remyelinating lesion.\nThe extent of remyelination was assessed as described in the previous examples in the corpus callosum of PERK+/+ and PERK+/− mice that were made to express INF-γ (DOX−PERK+/+ and DOX−PERK+/−), and in mice in which the expression of INF-γ was repressed (DOX+PERK+/+ and DOX+PERK+/−). Remyelination was determined by electron microscopy, and was related to the number of CC1 positive oligodendrocytes and the level of caspase-3 expression in the corpus callosum of all animals. The level of caspase-3 was determined by immunohistochemical methods using anti capsase antibody (active-casoase-3 antibody, 1:50; Cel Signaling Technology) and according to the method described in Example 1. Demyelination was induced in six-week-old GFAP/tTA; TRE/IFN-γ double transgenic mice on a PERK+/− background that had been maintained on doxycycline, by simultaneously treating the mice with 0.2% cuprizone and releasing them from doxycycline (DOX−PERK+/−). Remyelination was allowed to occur by withdrawing cuprizone at week 6."}, "Stat1": {"system": "Stat1", "experiment": "Stat1 nuclear translocation assay in mixed primary oligodendrocyte cultures", "format": "cell-based, mice", "conditions": "100 U/mL IFN-γ for 30 min, one hundred PLP positive cells counted", "procedure": "Mixed primary oligodendrocyte cultures were prepared as previously described (Baerwald et al., 2000). Briefly, brain tissue was harvested from 2-3-day-old newborn pups of PLP/SOCS1 and C57B1/6J matings. Because the litters contained transgenic and wild-type pups, the brain of each animal was processed individually, cultured separately, and later genotype matched. Each brain was digested separately using 0.25% trypsin and 10 μg/ml of DNAaseI (Invitrogen) in Dulbecco's modified Eagle's medium (DMEM) for 20 min at 37° C., and cells were cultured on separate poly-D-lysine-coated […] flasks (Sigma-Aldrich). The cultures were maintained with 10% fetal bovine serum DMEM at 37° C. with 5% CO2 for 12 days, and then switched to a defined medium containing […], 50 μg/ml of transferrin, 30 nM of selenium, 10 nM of biotin, 10 nM of progesterone, 15 nM of T3, 0.1% bovine serum albumin, and 1% ampicillin-streptomycin (Sigma-Aldrich). […] One hundred PLP positive cells were manually counted in both wild-type and PLP/SOCS1 cultures. […]\nThe responsiveness of PLP/SOCS1 oligodendrocytes to IFN-γ was studied in primary mixed glial cultures. […] In contrast, Stat1 nuclear translocation was detected only in occasional PLP positive oligodendrocytes (6±2 cells) following IFN-γ stimulation (p<0.05)."}},
  "data": [
    {"substance": "IFN-γ: pleotropic cytokine secreted by activated T lymphocytes and natural killer cells; delivered to the CNS by transgene or added as recombinant protein", "values": [
      {"measurement": "BIP mRNA increase vs control DOX+", "setting": "BIP, CHOP, p-eIF-2α", "result": "approximately 2 fold"},
      {"measurement": "CHOP mRNA increase vs control DOX+", "setting": "BIP, CHOP, p-eIF-2α", "result": "approximately 2 fold"},
      {"measurement": "CHOP protein elevation (Western blot)", "setting": "BIP, CHOP, p-eIF-2α", "result": "approximately 1.7 fold"},
      {"measurement": "phosphorylated eIF-2α elevation (Western blot)", "setting": "BIP, CHOP, p-eIF-2α", "result": "approximately 1.8 fold"},
      {"measurement": "remyelinated axons", "setting": "corpus callosum; DOX−PERK+/+", "result": "31.1%±7.6%"},
      {"measurement": "CC1 positive oligodendrocytes", "setting": "corpus callosum; DOX−PERK+/+, week 9", "result": "123.2±27.5 /0.04 mm^2"},
      {"measurement": "remyelinated axons", "setting": "corpus callosum; DOX−PERK+/−", "result": "15.6%±7.6%"},
      {"measurement": "caspase-3 positive oligodendrocytes, DOX−PERK+/− relative to DOX−PERK+/+", "setting": "corpus callosum; week 9", "result": 2.3, "unit": "times"},
      {"measurement": "PLP positive oligodendrocytes with Stat1 nuclear translocation", "setting": "Stat1; PLP/SOCS1 cultures", "result": "6±2", "unit": "cells"},
      {"measurement": "PLP positive oligodendrocytes with Stat1 nuclear translocation", "setting": "Stat1; wild-type cultures", "result": "96±3", "unit": "cells"}
    ]}
  ]
}
